Test results as given in patent publication US20250115941A1, “Exposure device for exposing microorganisms to gaseous pollutants and detection system thereof” (priority 2023, published 2025).
Values after ≈ are worked out from the molar mass of the structure shown. Counter-ions that a name gives are not always drawn.

Legend:
Vibrio fischeri [1] = assay: Acute toxicity of gaseous VOCs to hydrogel-microsphere-fixed Vibrio fischeri in exposure chamber (luminescence change); format: cell-based; settings: for IC50: Aliivibrio fischeri; for minimum detection limit: no pre-concentration; for IC50 (15 min) Ratio: liquid IC50 / gaseous IC50, 15 min; for IC50 (30 min) Ratio: liquid IC50 / gaseous IC50, 30 min; for IC50 (45 min) Ratio: liquid IC50 / gaseous IC50, 45 min; for IC50 (60 min) Ratio: liquid IC50 / gaseous IC50, 60 min
Method: A method for using the exposure device for exposing microorganisms to gaseous pollutants provided in the present application includes steps as follows: • (1) preparing the hydrogel microspheres with microorganisms: culturing microorganisms in a culture medium dissolved with 1.5% of sodium alginate for 3 h to 4 h, and after OD600 is greater than 0.1, uniformly dripping the microorganisms into a 1.5% calcium chloride solution through a peristaltic pump at a rate of 1.5 ml/min to obtain the hydrogel microspheres with microorganisms; taking out and placing the hydrogel microspheres in a culture medium for use; • (2) sequentially loading the hydrogel microspheres fixed with microorganisms in the multi-well exposure tray according to a detection requirement, and detecting an initial intensity of fluorescent signals of the hydrogel microspheres fixed with microorganisms; • (3) fixing the multi-well exposure tray to a lower end of the vertical pipe of the T-shaped air flow-mixing pipe through threads, and connecting the pressurizing air outlet pipe to the T-shaped air flow-mixing pipe, wherein silicone seal gaskets are mounted at all threaded connections to ensure leakproofness of the exposure device; • (4) placing the exposure device in an in-situ multi-toxicity endpoint detection system for VOCs or an in-situ multi-toxicity endpoint detection system for atmospheric particulate matter to make the gaseous pollutants enter the exposure device through the first and second depressurizing air inlet pipes at a flow rate ranging from 0.3 L/min to 2.0 L/min; and • (5) continuously introducing the gaseous pollutants for 15 min to 60 min, and then introducing clean air for 8 min to 10 min to completely replace the gaseous pollutants in the detection system; removing the multi-well exposure tray, and sequentially placing the hydrogel microspheres in the multi-well exposure tray into a 96 well plate, and detecting a final intensity of fluorescent signals of the hydrogel microspheres fixed with microorganisms in the plurality of channels by using a microplate reader to obtain an intensity change of fluorescent signals.
A commercial VOCs generator is used to accurately generate seven different VOCs with nine gradient concentrations, involving aldehydes (formaldehyde and acetaldehyde), pyridines (pyridine), alcohols (n-butyl alcohol), acyls and ketones (acetylacetone), benzenes, and phenols (phenol). Natural luminescent bacteria Vibrio fischeri as a target, is fixed by using hydrogel microspheres, and is arranged in an exposure chamber. VOCs are sequentially introduced into the exposure chamber at a flow rate of 0.5 L/min. After exposure for 15 min, 30 min, 45 min, and 60 min, Vibrio fischeri is taken out, and intensity change of fluorescent signals of Vibrio fischeri are measured by using a microplate reader. Concentration-acute toxicity curves of the gaseous pollutant comprising different VOCs and mixed VOCs are fitted by using analysis software, to obtain the IC50 value of acute toxicity of the gaseous pollutants.

Vibrio fischeri [2] = settings: concentration ratio 10 times
Text: (1) According to a detection requirement in this embodiment, the quantity of the multi-well exposure tray that need to be loaded is 1, and only one type of the hydrogel microspheres fixed with natural fluorescent microorganisms Vibrio fischeri is provided, and the quantity of hydrogel microspheres fixed with microorganisms that need to be used is 60. An initial fluorescence intensity of each hydrogel microsphere is detected and recorded, and the hydrogel microspheres are placed in the multi-well exposure tray, the multi-well exposure tray is loaded into the exposure device, and the detection system is sealed. […]
(4) The system-controlled vacuum pump at the distal end of the detection system and the vacuum pump of the gas circulation device are turned on, and the concentrated VOCs is introduced into the exposure device at 0.5 L/min, wherein exposure is set to last 15 min, 30 min, 45 min, and 60 min; and stability of the flowmeter of the gas circulation device and the system-controlled flowmeter at the distal end of the detection system during the process is monitored.
(5) After exposure to VOCs is completed, a microplate reader is used to measure final fluorescence intensity of each hydrogel microsphere, and changes of the initial fluorescence intensity and the final fluorescence intensity are obtained.

Vibrio fischeri [3] = assay: Acute toxicity exposure experiments of VOCs in a liquid state (conventional method); format: cell-based; settings: for IC50: Aliivibrio fischeri
[4] = tested on: recombined Escherichia coli carrying plasmids with different gene pathway; assay: Genotoxicity of gaseous dimethyl sulfate with the in-situ multi-toxicity endpoint detection system for VOCs (Embodiment 1); settings: exposure 20-500 mg/m^3, 15 min, 0.5 L/min
Method: Embodiment 1: Genotoxicity of an artificial gaseous pollutant (dimethyl sulfate) is detected by using the in-situ multi-toxicity endpoint detection system for volatile organic compounds (VOCs) constructed in the present application. Specific steps are as follows:
In this embodiment, a Tenax TA multi-well polymer adsorbent is selected as the adsorption material to be filled in an adsorber of the atmospheric pre-concentrator, and a mixed liquid of 50% of ethanol and 50% of pure water is added to the gas-washing bottle and the high-temperature steam generator.
(2) According to a detection requirement in this embodiment, the quantity of the multi-well exposure tray that need to be loaded is 6, 29 types of hydrogel microspheres fixed with recombined Escherichia coli carrying plasmids with different gene pathway are provided, and the quantity of each type of hydrogel microspheres fixed with microorganisms that need to be used is 15. An initial fluorescence intensity of each hydrogel microsphere is detected and recorded, and the hydrogel microspheres are placed in the multi-well exposure tray, the multi-well exposure tray is loaded into the exposure device, and the detection system is sealed. […]

[5] = 0.25 h, gaseous exposure, 15 min, 0.5 L/min, read-out: IC50 (15 min) Gaseous
[6] = 0.5 h, gaseous exposure, 30 min, 0.5 L/min, read-out: IC50 (30 min) Gaseous
[7] = 0.75 h, gaseous exposure, 45 min, 0.5 L/min, read-out: IC50 (45 min) Gaseous
[8] = 1 h, gaseous exposure, 60 min, 0.5 L/min, read-out: IC50 (60 min) Gaseous
[9] = 0.25 h, 15 min, read-out: IC50 (15 min) Liquid
[10] = 0.5 h, 30 min, read-out: IC50 (30 min) Liquid
[11] = 0.75 h, 45 min, read-out: IC50 (45 min) Liquid
[12] = 1 h, 60 min, read-out: IC50 (60 min) Liquid

Question: Which IC50 (Vibrio fischeri [1]; [5]) does the source give for `C=O` [Formaldehyde] here?
Answer: 0.00481 µg/mL (≈ 0.16 µM)

Question: And the IC50 (Vibrio fischeri [1]; [6])?
Answer: 0.00234 µg/mL (≈ 0.0779 µM)

Question: What about the IC50 (Vibrio fischeri [1]; [7]) of the same molecule?
Answer: 0.00181 µg/mL (≈ 0.0603 µM)

Question: And the IC50 (Vibrio fischeri [1]; [8])?
Answer: 0.00129 µg/mL (≈ 0.043 µM)

Question: What about the minimum detection limit (Vibrio fischeri [1]; gaseous exposure) of the same molecule?
Answer: 1.3 mg/m^3

Question: What about the “IC50 (15 min) Ratio” value (Vibrio fischeri [1]) of the same molecule?
Answer: 3395

Question: And the “IC50 (30 min) Ratio” value (Vibrio fischeri [1])?
Answer: 6684

Question: And the “IC50 (45 min) Ratio” value (Vibrio fischeri [1])?
Answer: 8519

Question: And the “IC50 (60 min) Ratio” value (Vibrio fischeri [1])?
Answer: 11457

Question: And the “minimum detection limit at concentration ratio of 10 times” value (Vibrio fischeri [2])?
Answer: 0.13 mg/m^3

Question: What about the IC50 (Vibrio fischeri [3]; [9]) of the same molecule?
Answer: 16.3 µg/mL (≈ 544 µM)

Question: What about the IC50 (Vibrio fischeri [3]; [10]) of the same molecule?
Answer: 15.6 µg/mL (≈ 521 µM)

Question: What about the IC50 (Vibrio fischeri [3]; [11]) of the same molecule?
Answer: 15.4 µg/mL (≈ 514 µM)

Question: What about the IC50 (Vibrio fischeri [3]; [12]) of the same molecule?
Answer: 14.8 µg/mL (≈ 492 µM)

Question: For `c1ccncc1` [Pyridine], which IC50 (Vibrio fischeri [1]; [5]) is on record?
Answer: 1.5 µg/mL (≈ 19 µM)

Question: And the IC50 (Vibrio fischeri [1]; [6])?
Answer: 1.25 µg/mL (≈ 15.8 µM)

Question: What about the IC50 (Vibrio fischeri [1]; [7]) of the same molecule?
Answer: 0.88 µg/mL (≈ 11.1 µM)

Question: What about the IC50 (Vibrio fischeri [1]; [8]) of the same molecule?
Answer: 0.5 µg/mL (≈ 6.32 µM)

Question: What about the “IC50 (15 min) Ratio” value (Vibrio fischeri [1]) of the same molecule?
Answer: 680

Question: And the “IC50 (30 min) Ratio” value (Vibrio fischeri [1])?
Answer: 864

Question: What about the “IC50 (45 min) Ratio” value (Vibrio fischeri [1]) of the same molecule?
Answer: 1295

Question: What about the “IC50 (60 min) Ratio” value (Vibrio fischeri [1]) of the same molecule?
Answer: 2500

Question: And the IC50 (Vibrio fischeri [3]; [9])?
Answer: 1020 µg/mL (≈ 12900 µM)

Question: What about the IC50 (Vibrio fischeri [3]; [10]) of the same molecule?
Answer: 1080 µg/mL (≈ 13700 µM)

Question: And the IC50 (Vibrio fischeri [3]; [11])?
Answer: 1140 µg/mL (≈ 14400 µM)

Question: What about the IC50 (Vibrio fischeri [3]; [12]) of the same molecule?
Answer: 1250 µg/mL (≈ 15800 µM)

Question: With `CC=O` [Acetaldehyde] as the molecule, how does the IC50 (Vibrio fischeri [1]; [5]) read?
Answer: 2.12 µg/mL (≈ 48.1 µM)

Question: And the IC50 (Vibrio fischeri [1]; [6])?
Answer: 1.29 µg/mL (≈ 29.3 µM)

Question: And the IC50 (Vibrio fischeri [1]; [7])?
Answer: 0.83 µg/mL (≈ 18.8 µM)

Question: And the IC50 (Vibrio fischeri [1]; [8])?
Answer: 0.49 µg/mL (≈ 11.1 µM)

Question: What about the “IC50 (15 min) Ratio” value (Vibrio fischeri [1]) of the same molecule?
Answer: 302

Question: And the “IC50 (30 min) Ratio” value (Vibrio fischeri [1])?
Answer: 450

Question: And the “IC50 (45 min) Ratio” value (Vibrio fischeri [1])?
Answer: 699

Question: And the “IC50 (60 min) Ratio” value (Vibrio fischeri [1])?
Answer: 1224

Question: And the IC50 (Vibrio fischeri [3]; [9])?
Answer: 640 µg/mL (≈ 14500 µM)

Question: What about the IC50 (Vibrio fischeri [3]; [10]) of the same molecule?
Answer: 580 µg/mL (≈ 13200 µM)

Question: What about the IC50 (Vibrio fischeri [3]; [11]) of the same molecule?
Answer: 580 µg/mL (≈ 13200 µM)

Question: What about the IC50 (Vibrio fischeri [3]; [12]) of the same molecule?
Answer: 600 µg/mL (≈ 13600 µM)

Question: What does the source list for `COS(=O)(=O)OC` [dimethyl sulfate]?
Answer: gene pathways significantly upregulated (of 29 key gene pathways) [4]: Nine of these gene pathways are significantly upregulated; genotoxicity / toxicity effects indicated [4]: may cause inhibition of cell division, oxidative stress, protein stress, and severe DNA damage, mutation, and recombination

Question: How did the “IC50 (15 min) Gaseous” value (Vibrio fischeri [1]; gaseous exposure, 15 min, 0.5 L/min) turn out when `CCCCO` [N-butyl alcohol] was run?
Answer: 1.05 µg/mL (≈ 14.2 µM)

Question: What about the “IC50 (30 min) Gaseous” value (Vibrio fischeri [1]; gaseous exposure, 30 min, 0.5 L/min) of the same molecule?
Answer: 0.73 µg/mL (≈ 9.85 µM)

Question: And the “IC50 (45 min) Gaseous” value (Vibrio fischeri [1]; gaseous exposure, 45 min, 0.5 L/min)?
Answer: 0.53 µg/mL (≈ 7.15 µM)

Question: What about the “IC50 (60 min) Gaseous” value (Vibrio fischeri [1]; gaseous exposure, 60 min, 0.5 L/min) of the same molecule?
Answer: 0.40 µg/mL (≈ 5.4 µM)

Question: And the “IC50 (15 min) Ratio” value (Vibrio fischeri [1])?
Answer: 1705

Question: What about the “IC50 (30 min) Ratio” value (Vibrio fischeri [1]) of the same molecule?
Answer: 2521

Question: And the “IC50 (45 min) Ratio” value (Vibrio fischeri [1])?
Answer: 3472

Question: What about the “IC50 (60 min) Ratio” value (Vibrio fischeri [1]) of the same molecule?
Answer: 4625

Question: And the “IC50 (15 min) Liquid” value (Vibrio fischeri [3]; 15 min)?
Answer: 1790 µg/mL (≈ 24100 µM)

Question: And the “IC50 (30 min) Liquid” value (Vibrio fischeri [3]; 30 min)?
Answer: 1840 µg/mL (≈ 24800 µM)

Question: And the “IC50 (45 min) Liquid” value (Vibrio fischeri [3]; 45 min)?
Answer: 1840 µg/mL (≈ 24800 µM)

Question: What about the “IC50 (60 min) Liquid” value (Vibrio fischeri [3]; 60 min) of the same molecule?
Answer: 1850 µg/mL (≈ 25000 µM)

Question: With `Oc1ccccc1` [Phenol] as the molecule, how does the IC50 (Vibrio fischeri [1]; [5]) read?
Answer: 0.0689 µg/mL (≈ 0.732 µM)

Question: And the IC50 (Vibrio fischeri [1]; [6])?
Answer: 0.0363 µg/mL (≈ 0.386 µM)

Question: And the IC50 (Vibrio fischeri [1]; [7])?
Answer: 0.028 µg/mL (≈ 0.298 µM)

Question: And the IC50 (Vibrio fischeri [1]; [8])?
Answer: 0.0202 µg/mL (≈ 0.215 µM)

Question: And the minimum detection limit (Vibrio fischeri [1]; gaseous exposure)?
Answer: 20.31 mg/m^3

Question: And the “IC50 (15 min) Ratio” value (Vibrio fischeri [1])?
Answer: 3921

Question: And the “IC50 (30 min) Ratio” value (Vibrio fischeri [1])?
Answer: 7991

Question: And the “IC50 (45 min) Ratio” value (Vibrio fischeri [1])?
Answer: 11424

Question: What about the “IC50 (60 min) Ratio” value (Vibrio fischeri [1]) of the same molecule?
Answer: 15818

Question: And the “minimum detection limit at concentration ratio of 10 times” value (Vibrio fischeri [2])?
Answer: 2.03 mg/m^3

Question: And the IC50 (Vibrio fischeri [3]; [9])?
Answer: 270 µg/mL (≈ 2870 µM)

Question: And the IC50 (Vibrio fischeri [3]; [10])?
Answer: 290 µg/mL (≈ 3080 µM)

Question: And the IC50 (Vibrio fischeri [3]; [11])?
Answer: 320 µg/mL (≈ 3400 µM)

Question: And the IC50 (Vibrio fischeri [3]; [12])?
Answer: 320 µg/mL (≈ 3400 µM)

Question: Which IC50 (Vibrio fischeri [1]; [5]) does the source give for `CC(=O)CC(C)=O` [Acetylacetone] here?
Answer: 0.28 µg/mL (≈ 2.8 µM)

Question: What about the IC50 (Vibrio fischeri [1]; [6]) of the same molecule?
Answer: 0.19 µg/mL (≈ 1.9 µM)

Question: And the IC50 (Vibrio fischeri [1]; [7])?
Answer: 0.13 µg/mL (≈ 1.3 µM)

Question: And the IC50 (Vibrio fischeri [1]; [8])?
Answer: 0.11 µg/mL (≈ 1.1 µM)

Question: And the “IC50 (15 min) Ratio” value (Vibrio fischeri [1])?
Answer: 1000

Question: And the “IC50 (30 min) Ratio” value (Vibrio fischeri [1])?
Answer: 1316

Question: What about the “IC50 (45 min) Ratio” value (Vibrio fischeri [1]) of the same molecule?
Answer: 2385

Question: And the “IC50 (60 min) Ratio” value (Vibrio fischeri [1])?
Answer: 2273

Question: And the IC50 (Vibrio fischeri [3]; [9])?
Answer: 280 µg/mL (≈ 2800 µM)

Question: What about the IC50 (Vibrio fischeri [3]; [10]) of the same molecule?
Answer: 250 µg/mL (≈ 2500 µM)

Question: What about the IC50 (Vibrio fischeri [3]; [11]) of the same molecule?
Answer: 310 µg/mL (≈ 3100 µM)

Question: What about the IC50 (Vibrio fischeri [3]; [12]) of the same molecule?
Answer: 250 µg/mL (≈ 2500 µM)
